According to US9271971B2, “Pyrido[3,4-B]indoles and methods of use” (Medivation Technologies, Inc., priority 2009, dated 2016):

Key:
[1] = target: T1, human recombinant adrenergic α2A receptor (Homo sapiens, UniProt P08913); assay: Adrenergic α2A radioligand binding assay; details: [3H]MK-912 specific binding; for inhibition at 1 µM: read-out: Percent Inhibition of ligand binding, Adrenergic (1 μM ligand conc.) α2A; for inhibition at 0.1 µM: read-out: Percent Inhibition of ligand binding, Adrenergic (0.1 μM ligand conc.) α2A
T1 construct: expressed in transfected cells; host or cells: insect Sf9 cells
T1 sequence (P08913 1-465): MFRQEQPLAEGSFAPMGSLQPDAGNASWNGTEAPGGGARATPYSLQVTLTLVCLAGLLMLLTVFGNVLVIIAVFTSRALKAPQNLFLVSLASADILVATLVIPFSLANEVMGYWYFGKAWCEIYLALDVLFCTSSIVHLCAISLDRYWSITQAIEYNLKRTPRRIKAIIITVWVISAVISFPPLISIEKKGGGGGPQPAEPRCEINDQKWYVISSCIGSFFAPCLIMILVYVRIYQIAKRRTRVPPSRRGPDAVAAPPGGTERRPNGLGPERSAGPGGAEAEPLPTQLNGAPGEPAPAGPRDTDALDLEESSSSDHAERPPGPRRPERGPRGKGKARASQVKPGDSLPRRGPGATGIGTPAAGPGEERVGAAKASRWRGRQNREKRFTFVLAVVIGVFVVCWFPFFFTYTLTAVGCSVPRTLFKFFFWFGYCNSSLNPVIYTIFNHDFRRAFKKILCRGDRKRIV
Method: To evaluate in radioligand binding assays the activity of compounds of the invention, human recombinant adrenergic α2A receptor expressed in insect Sf9 cells [Uhlen, S et al. J. Pharmacol. Exp. Ther. (1994), 271:1558] in a modified Tris-HCl buffer (50 mM Tris-HCl, pH 7.4, 12.5 mM MgCl2, 2 mM EDTA) was used. Compounds of invention were incubated with 1 nM [^3H]MK-912 for 60 min. at 25° C. MK912 was (2S-trans)-1,3,4,5′,6,6′,7,12b-octahydro-1′,3′-dimethyl-spiro[2H-benzofuro[2,3-a]quinolizine-2,4′(1′H)-pyrimidin]-2′(3′H)-one hydrochloride Non-specific binding was estimated in the presence of 10 μM WB-4101 (2-(2,6-dimethoxyphenoxyethyl)aminomethyl-1,4-benzodioxane hydrochloride). Receptor proteins were filtered and washed, the filters were then counted to determine [^3H]MK-912 specifically bound. Compounds were screened at 1 μM or lower, using 1% DMSO as vehicle. Compounds of the invention were tested in this biochemical assay. Biochemical assay results for representative compounds were presented as the percent inhibition of specific binding in Table 3.

[2] = target: T2, human recombinant adrenergic α2B receptor (Homo sapiens, UniProt P18089); assay: Adrenergic α2B radioligand binding assay; details: [3H]Rauwolscine specific binding; for inhibition at 1 µM: read-out: Percent Inhibition of ligand binding, Adrenergic (1 μM ligand conc.) α2B; for inhibition at 0.1 µM: read-out: Percent Inhibition of ligand binding, Adrenergic (0.1 μM ligand conc.) α2B
T2 construct: expressed in transfected cells; host or cells: Chinese hamster ovary (CHO-K1) cells
T2 sequence (P18089 1-450): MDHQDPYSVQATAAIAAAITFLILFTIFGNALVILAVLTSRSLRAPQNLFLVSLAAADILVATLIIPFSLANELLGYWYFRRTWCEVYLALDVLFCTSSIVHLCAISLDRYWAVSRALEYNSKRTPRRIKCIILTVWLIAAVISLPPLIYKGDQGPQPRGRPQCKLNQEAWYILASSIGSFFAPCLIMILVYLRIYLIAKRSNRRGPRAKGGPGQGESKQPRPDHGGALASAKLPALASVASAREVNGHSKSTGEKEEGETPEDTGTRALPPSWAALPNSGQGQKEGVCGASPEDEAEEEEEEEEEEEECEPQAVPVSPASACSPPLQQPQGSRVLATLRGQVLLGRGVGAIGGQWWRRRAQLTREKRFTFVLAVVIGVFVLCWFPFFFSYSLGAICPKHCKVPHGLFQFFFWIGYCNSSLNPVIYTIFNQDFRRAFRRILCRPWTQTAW
Method: To evaluate in radioligand binding assays the activity of compounds of the invention, human recombinant adrenergic α2B receptor expressed in Chinese hamster ovary (CHO-K1) cells [Uhlen, S et al., Eur J Pharmacol. (1998), 343(1):93] in a modified Tris-HCl buffer (50 mM Tris-HCl, pH 7.4, 12.5 mM MgCl2, 1 mM EDTA, 0.2% BSA) was used. Compounds of the invention were incubated with 2.5 nM [^3H]Rauwolscine for 60 min. at 25° C. Non-specific binding was estimated in the presence of 10 μM Prozosin. Receptor proteins were filtered and washed, the filters were then counted to determine [^3H]Rauwolscine specifically bound. Compounds were screened at 1 μM or lower, using 1% DMSO as vehicle. Compounds of the invention were tested in this biochemical assay. Biochemical assay results for representative compounds were presented as the percent inhibition of specific binding in Table 3.

[3] = target: T3, human recombinant serotonin (5-Hydroxytryptamine) 5-HT6 receptor (Homo sapiens, UniProt P50406); assay: Serotonin 5-HT6 radioligand binding assay; details: [3H]LSD specific binding; for inhibition at 1 µM: read-out: Percent Inhibition of ligand binding, Serotonin (1 μM ligand concentration) 5-HT6
T3 construct: expressed in transfected cells; host or cells: human HeLa cells
Method: To evaluate in radioligand binding assays the activity of compounds of the invention, human recombinant serotonin (5-Hydroxytryptamine) 5-HT6 receptor expressed in human HeLa cells [Monsma, F. J. Jr et al., Mol. Pharmacol. (1993), 43:320] in a modified Tris-HCl buffer (50 mM Tris-HCl, pH 7.4, 150 mM NaCl, 2 mM Ascorbic Acid, 0.001% BSA) was used. Compounds of the invention were incubated with 1.5 nM [3H]Lysergic acid diethylamide (LSD) for 120 min. at 37° C. Non-specific binding was estimated in the presence of 5 μM Serotonin (5-HT). Receptor proteins were filtered and washed, the filters were then counted to determine[3H]LSD specifically bound. Compounds were screened at 1 μM or lower, using 1% DMSO as vehicle. Biochemical assay results are presented as the percent inhibition of specific binding in Table 4.

T3 sequence (P50406 whole entry): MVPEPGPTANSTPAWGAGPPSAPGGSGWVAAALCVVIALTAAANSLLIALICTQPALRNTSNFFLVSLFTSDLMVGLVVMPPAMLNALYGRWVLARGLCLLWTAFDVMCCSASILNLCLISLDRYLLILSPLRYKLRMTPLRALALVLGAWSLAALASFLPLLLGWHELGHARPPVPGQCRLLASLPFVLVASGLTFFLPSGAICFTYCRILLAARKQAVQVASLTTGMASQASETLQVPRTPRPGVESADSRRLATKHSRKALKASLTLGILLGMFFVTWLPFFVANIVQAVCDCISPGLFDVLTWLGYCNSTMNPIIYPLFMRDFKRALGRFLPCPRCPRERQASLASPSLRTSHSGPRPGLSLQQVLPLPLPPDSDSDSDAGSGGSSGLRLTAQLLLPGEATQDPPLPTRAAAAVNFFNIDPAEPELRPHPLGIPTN

SMILES | inhibition at 1 µM ([1]; 1 μM) | inhibition at 1 µM ([2]; 1 μM) | inhibition at 1 µM [3] | also measured
Cc1ccc2c(c1)c1c(n2CC(=O)N(C)C)CN2CCC1C2 (centres unmarked) [Compound 27] | 5% | -15% | 5% | –
C=C(Cn1c2c(c3cc(C)ccc31)C1CCN(C2)C1)c1ccc(F)cc1 (centres unmarked) [Compound 3] | 93% | 93% | 105% | –
Cc1ccc2c(c1)c1c(n2CC(=O)NC2CCCCC2)CN2CCC1C2 (centres unmarked) [Compound 23] | -13% | -6% | 4% | –
C/C(=C\n1c2c(c3cc(C)ccc31)C1CCN(C2)C1)c1ccc(Cl)cc1 (centres unmarked) [Compound 32] | 96% | 98% | 97% | inhibition at 0.1 µM [1]: 45%; inhibition at 0.1 µM [2]: 56%
Cc1ccc2c(c1)c1c(n2CC(O)c2ccc(F)cc2)CN2CCC1C2 (centres unmarked) [Compound 31] | 41% | 79% | 46% | –
C/C(=C/n1c2c(c3cc(C)ccc31)C1CCN(C2)C1)c1ccccc1F (centres unmarked) [Compound 37] | – | – | 70% | –
C/C(=C\n1c2c(c3cc(C)ccc31)C1CCN(C2)C1)c1ccc(F)c(F)c1 (centres unmarked) [Compound 39] | – | – | 81% | –
Cc1ccc2c(c1)c1c(n2CCc2nc(-c3ccccc3)cs2)CN2CCC1C2 (centres unmarked) [Compound 19] | -10% | 61% | 9% | –
Cc1ccc2c(c1)c1c(n2CC(C)(O)c2ccc(Cl)cc2Cl)CN2CCC1C2 (centres unmarked) [Compound 14] | 18% | 68% | 1% | –
Cc1ccc2c(c1)c1c(n2CC(C)(O)c2ccc(F)c(F)c2)CN2CCC1C2 (centres unmarked) [Compound 15] | 21% | 106% | 59% | –
Cc1ccc2c(c1)c1c(n2CCc2ccc(C)nc2)CN2CCC1C2 (centres unmarked) [Compound 12] | -4% | 16% | 2% | –
Cc1ccc2c(c1)c1c(n2CC(=O)N2CCCCC2)CN2CCC1C2 (centres unmarked) [Compound 7] | 9% | 0% | 0% | –
C/C(=C\n1c2c(c3cc(C)ccc31)C1CCN(C2)C1)c1ccc(Cl)cc1Cl (centres unmarked) [Compound 34] | – | – | – | Percent Inhibition of ligand binding, Adrenergic (1 μM ligand conc.) α2A ([1]; 1 μM): 48%; Percent Inhibition of ligand binding, Adrenergic (1 μM ligand conc.) α2B ([2]; 1 μM): 55%; Percent Inhibition of ligand binding, Serotonin (1 μM ligand concentration) 5-HT6 [3]: 21%
Cc1ccc2c(c1)c1c(n2CCc2ccncc2)CN2CCC1C2 (centres unmarked) [Compound 30] | 84% | 76% | 33% | –
C/C(=C\n1c2c(c3cc(C)ccc31)C1CCN(C2)C1)c1cccnc1 (centres unmarked) [Compound 42] | – | – | 26% | –
Cc1ccc(/C=C/n2c3c(c4cc(C)ccc42)C2CCN(C3)C2)cc1 (centres unmarked) [Compound 10] | 38% | 66% | -4% | –
Cc1ccc2c(c1)c1c(n2CCc2ccc(C(F)(F)F)nc2)CN2CCC1C2 (centres unmarked) [Compound 1] | 25% | 7% | 10% | –

SMILES | inhibition at 1 µM ([1]; 1 μM) | inhibition at 1 µM ([2]; 1 μM) | inhibition at 1 µM [3] | also measured
Cc1ccc2c(c1)c1c(n2CC(=O)c2ccc(F)cc2)CN2CCC1C2 (centres unmarked) [Compound 28] | 86% | 45% | 15% | –
Cc1ccc2c(c1)c1c(n2CC(=O)N2CCOCC2)CN2CCC1C2 (centres unmarked) [Compound 26] | -4% | 7% | 4% | –
Cc1ccc2c(c1)c1c(n2CC(C)(O)c2ccc(Cl)cc2)CN2CCC1C2 (centres unmarked) [Compound 16] | 28% | 103% | 29% | –
C/C(=C\n1c2c(c3cc(C)ccc31)C1CCN(C2)C1)c1ccncc1 (centres unmarked) [Compound 44] | – | – | 97% | inhibition at 0.1 µM [1]: -5%; inhibition at 0.1 µM [2]: 9%
Cc1ccc2c(c1)c1c(n2C(=O)Cc2ccc(F)cc2)CN2CCC1C2 (centres unmarked) [Compound 43] | – | – | 7% | –
Cc1ccc2c(c1)c1c(n2CC(C)(O)c2ccc(F)cc2)CN2CCC1C2 (centres unmarked) [Compound 2] | 54% | 84% | 58% | –
Cc1ccc2c(c1)c1c(n2CC(=O)c2ccccc2)CN2CCC1C2 (centres unmarked) [Compound 21] | 5% | 20% | 29% | –
C/C(=C\n1c2c(c3cc(C)ccc31)C1CCN(C2)C1)c1ccc(Cl)c(Cl)c1 (centres unmarked) [Compound 40] | – | – | 12% | –
Cc1ccc2c(c1)c1c(n2CCc2cncc(F)c2)CN2CCC1C2 (centres unmarked) [Compound 9] | 2% | 45% | 40% | –
Cc1ccc2c(c1)c1c(n2CC(C)(O)c2ccc(F)cc2F)CN2CCC1C2 (centres unmarked) [Compound 17] | 4% | 90% | 9% | –
C/C(=C\n1c2c(c3cc(C)ccc31)C1CCN(C2)C1)c1ccc(Cl)cc1Cl (centres unmarked) [Compound 33] | 66% | 73% | 35% | inhibition at 0.1 µM [1]: 13%; inhibition at 0.1 µM [2]: 9%
Cc1ccc2c(c1)c1c(n2CC(O)c2ccccc2)CN2CCC1C2 (centres unmarked) [Compound 4] | 54% | 89% | 56% | –
Cc1ccc2c(c1)c1c(n2CC(C)(O)c2ccc(Cl)c(Cl)c2)CN2CCC1C2 (centres unmarked) [Compound 13] | 39% | 99% | 17% | –
COc1ccc(/C(C)=C/n2c3c(c4cc(C)ccc42)C2CCN(C3)C2)cc1F (centres unmarked) [Compound 41] | – | – | 48% | –
Cc1ccc2c(c1)c1c(n2CC(=O)c2ccc(Cl)cc2)CN2CCC1C2 (centres unmarked) [Compound 29] | 89% | 58% | 32% | –
Cc1ccc2c(c1)c1c(n2CC(C)(O)c2ccc(F)c(Cl)c2)CN2CCC1C2 (centres unmarked) [Compound 18] | 30% | 107% | 49% | –
Cc1ccc2c(c1)c1c(n2C#Cc2ccc(Cl)cc2)CN2CCC1C2 (centres unmarked) [Compound 35] | – | – | 12% | –
